From patent US7943606B2, “Compositions and methods to control abnormal cell growth” (CanCure Laboratories, LLC, priority 2005, dated 2011)

Key:
cancer cells = test: Induction of cancer cell death by quaternary nitrogen dyes compared with CCDTHT; type: cell-based
Excerpt: Despite these observations, for the purpose of embodiments of the invention, the thioxanthene or thioxanthone moiety may be replaced with any other heterocyclic moiety to which it is feasible to attach at least one quaternary nitrogen group with three substituents that together are capable of inhibiting the transport of external choline into cells and thereby inhibit cell proliferation.

MXT tumor = test: MXT mouse mammary tumor model: tumor volume and survival; type: in vivo; conditions: for Tumor volume, Day 7: start of treatment
Excerpt: Tumors were developed in first generation hybrid BDF1 (C57 B1 female×DBA/2 male) adult female mice kept at specified pathogen free (SPF) hygienic level. Suspensions of HL-60 human leukemia cells, or approximately 0.1 cm^3 volume of tumor tissue derived from HT-168 human melanoma, PC-3 human prostate adenocarcinoma, T47D human breast carcinoma, MXT mouse mammary cancer, or mouse B16 melanoma cells were implanted subcutaneously to develop the tumors. After 12-18 days when the tumor-bearing mice were first treated, the size of the tumors was in the 0.2-0.4 cm^3 range. All compounds used were dissolved in physiological (0.9%) saline (NaCl), and the agents, alone or in combinations, were applied subcutaneously or intraperitoneally in 50 μl volume. Tumor volume was determined by calipers in three dimensions; this technique is well known to one having ordinary skill in the art. Tumor volume was calculated according to the generally accepted formula: V=a^2×b×π/6, where “a” and “b” mean the shortest and longest diameter, respectively, of the measured tumor.
The mouse mammary MXT tumor was developed as described above. On day 7 after transplantation of tumor cells, the animals were either remained untreated (group 1) or were treated with 2 mg/kg of CisPt alone (Group 2), or 4 mg/kg of CisPt alone (Group 3), or 4.6 mg/kg of CCDTHT alone (Group 4), or 2 mg/kg of CisPt+4.6 mg/kg of CCDTHT (Group 5), or 4 mg/kg of CisPt+4.6 mg/kg of CCDTHT (Group 6). CCDTHT and CisPt were administered subcutaneously and intraperitoneally, respectively, once daily for 10 days, including a 2-day rest period after 5 days of treatment (i.e., the last treatment was on day 19). Each group consisted of 7 animals, and the mean values±std. dev. for tumor volumes and body weight are shown in TABLE 4 and TABLE 5, respectively. While in this tumor model CCDTHT alone reduced the tumor volume less effectively than in the human tumor models, it clearly added to the tumor volume-reducing effect of CisPt (TABLE 4). A dramatic reduction in tumor volume was particularly evident in Group 6 (4 mg/kg CisPt+4.6 mg/kg CCDTHT).
The mouse mammary MXT tumor model was developed and treated as described above. On day 7 the animals were either remained untreated (Group 1) or were treated with 3 mg/kg of CisPt (Group 2) or 3 mg/kg of CisPt+15 mg/kg of highly purified PALP (Group 3). CisPt and PALP were administered intraperitoneally and subcutaneously, respectively, seven times on every second day (i.e., treatments were terminated on day 21). Each group included 7 animals; the mean values±std. dev. for tumor volumes and body weight are shown in TABLE 6 and TABLE 7, respectively.
The mouse mammary MXT tumor model was developed and treated as described above. On day 7 the animals either remained untreated (Group 1) or were treated with 3 mg/kg CisPt (Group 2), 3 mg/kg CisPt+4.6 mg/kg of CCDTHT (Group 3), or 3 mg/kg CisPt+4.6 mg/kg of CCDTHT+15 mg/kg highly purified PALP (Group 4). CisPt was administered intraperitoneally 9-times once every second day; CCDTHT was administered for 15 days once daily; and PALP was administered 3 times every 3rd day. In each group 7 mice were included. The mean values±std. dev. for tumor volumes and body weights are shown in TABLE 9 and TABLE 10, respectively.

[1] = Body weight of animals in the MXT tumor model; type: in vivo, mouse; conditions: for Body weight, Day 7: start of treatment
Procedure: The mouse mammary MXT tumor was developed as described above. […] CCDTHT and CisPt were administered subcutaneously and intraperitoneally, respectively, once daily for 10 days, including a 2-day rest period after 5 days of treatment (i.e., the last treatment was on day 19). Each group consisted of 7 animals, and the mean values±std. dev. for tumor volumes and body weight are shown in TABLE 4 and TABLE 5, respectively.
The mouse mammary MXT tumor model was developed and treated as described above. […] CisPt and PALP were administered intraperitoneally and subcutaneously, respectively, seven times on every second day (i.e., treatments were terminated on day 21). Each group included 7 animals; the mean values±std. dev. for tumor volumes and body weight are shown in TABLE 6 and TABLE 7, respectively.
The mouse mammary MXT tumor model was developed and treated as described above. […] In each group 7 mice were included. The mean values±std. dev. for tumor volumes and body weights are shown in TABLE 9 and TABLE 10, respectively.

[2] = Example 31, CisPt 2 mg/kg i.p. and/or CCDTHT 4.6 mg/kg s.c., once daily
[3] = Example 31, CisPt 2 mg/kg i.p. and/or CCDTHT 4.6 mg/kg s.c.
[4] = Example 31, CisPt 4 mg/kg i.p. without or with CCDTHT 4.6 mg/kg s.c., once daily
[5] = Example 31, CisPt 4 mg/kg i.p. without or with CCDTHT 4.6 mg/kg s.c.
[6] = Example 32, CisPt 3 mg/kg i.p. without or with PALP 15 mg/kg s.c., every second day
[7] = Example 32, CisPt 3 mg/kg i.p. without or with PALP 15 mg/kg s.c.
[8] = Example 34, CisPt 3 mg/kg i.p. every second day, CCDTHT 4.6 mg/kg once daily, PALP 15 mg/kg every 3rd day
[9] = Example 34, CisPt 3 mg/kg i.p., CCDTHT 4.6 mg/kg, PALP 15 mg/kg

With CN(C)c1ccc2nc3c(C(=O)O)cc(=O)c(O)c-3oc2c1.Cl [gallocyanine] the “inducing cancer cell death, compared with CCDTHT” value (cancer cells) was “ineffective or less effective”.

With CN(C)c1ccc(C(=C2C=CC(=[N+](C)C)C=C2)c2ccc([N+](C)(C)C)cc2)cc1.[Cl-].[Cl-] [methyl green] the “inducing cancer cell death, compared with CCDTHT” value (cancer cells) was “ineffective or less effective”.

For CN(C)c1ccc2nc3ccc(=[N+](C)C)cc-3sc2c1 [methylene blue], the “inducing cancer cell death, compared with CCDTHT” value (cancer cells) was “ineffective or less effective”.

With N.N.[Cl][Pt][Cl] [CisPt, Cisplatin] the survival (MXT tumor; Example 31, CisPt 2 mg/kg and/or CCDTHT 4.6 mg/kg (groups 2, 4, 5)) was 32.7 ± 6.2 days, the “Tumor volume, Day 14” value (MXT tumor; [2]) was 3.34 ± 1.04 cm^3 and the “Tumor volume, Day 18” value (MXT tumor; [2]) was 5.37 ± 0.68 cm^3. For the same compound, the “Tumor volume, Day 21” value (MXT tumor; [2]) was 6.23 ± 0.86 cm^3, the “Tumor volume, Day 7” value (MXT tumor; [3]) was 0.46 ± 0.08 cm^3 and the “Tumor volume, Day 14” value (MXT tumor; [4]) was 1.77 ± 0.40 cm^3. The “Tumor volume, Day 18” value (MXT tumor; [4]) was “all dead”, the “Tumor volume, Day 21” value (MXT tumor; [4]) was “all dead” and the “Tumor volume, Day 7” value (MXT tumor; [5]) was 0.45 ± 0.10 cm^3. For the same compound, the survival (MXT tumor; Example 31, CisPt 4 mg/kg without or with CCDTHT 4.6 mg/kg (groups 3, 6)) was 18.1 ± 0.7 days, the “Tumor volume, Day 11” value (MXT tumor; [6]) was 1.45 ± 0.22 cm^3 and the “Tumor volume, Day 16” value (MXT tumor; [6]) was 4.53 ± 1.00 cm^3. For the same compound, the “Tumor volume, Day 21” value (MXT tumor; [6]) was 5.86 ± 1.38 cm^3, the “Tumor volume, Day 7” value (MXT tumor; [7]) was 0.38 ± 0.01 cm^3 and the survival (MXT tumor; Example 32, CisPt 3 mg/kg without or with PALP 15 mg/kg) was 31.1 ± 6.2 days. For the same compound, the survival time (MXT tumor; Example 34, CisPt 3 mg/kg alone or with CCDTHT 4.6 mg/kg + PALP 15 mg/kg) was 34 days, the “Tumor volume, Day 11” value (MXT tumor; [8]) was 1.92 ± 0.67 cm^3 and the “Tumor volume, Day 15” value (MXT tumor; [8]) was 3.80 ± 1.30 cm^3. The “Tumor volume, Day 21” value (MXT tumor; [8]) was 6.64 ± 1.28 cm^3, the “Tumor volume, Day 7” value (MXT tumor; [9]) was 0.36 ± 0.12 cm^3 and the “Body weight, Day 14” value [1, 2] was 22.9 ± 0.87 g. The “Body weight, Day 18” value [1, 2] was 22.3 ± 1.02 g, the “Body weight, Day 21” value [1, 2] was 21.2 ± 1.31 g and the “Body weight, Day 7” value [1, 3] was 22.4 ± 0.73 g. The “Body weight, Day 14” value [1, 4] was 19.4 ± 1.05 g, the “Body weight, Day 18” value [1, 4] was “all dead” and the “Body weight, Day 21” value [1, 4] was “all dead”. The “Body weight, Day 7” value [1, 5] was 22.5 ± 0.92 g, the “Body weight, Day 11” value [1, 6] was 23.1 ± 0.52 g and the “Body weight, Day 16” value [1, 6] was 20.9 ± 0.65 g. For the same compound, the “Body weight, Day 21” value [1, 6] was 19.2 ± 0.66 g, the “Body weight, Day 7” value [1, 7] was 22.7 ± 0.37 g and the “Body weight, Day 11” value [1, 8] was 23.10 ± 1.40 g. For the same compound, the “Body weight, Day 15” value [1, 8] was 22.9 ± 1.00 g, the “Body weight, Day 21” value [1, 8] was 20.6 ± 1.80 g and the “Body weight, Day 7” value [1, 9] was 22.2 ± 1.10 g.

For C[N+](C)=c1ccc2nc3c(ccc4ccccc43)oc-2c1.[Cl-].[Cl-].[Cl-].[Zn+2] [meldola blue], the “inducing cancer cell death, compared with CCDTHT” value (cancer cells) was “ineffective or less effective”.

With CN(C)c1ccc2cc3ccc(=[N+](C)C)cc-3oc2c1.[Cl-] [pyronin] the “inducing cancer cell death, compared with CCDTHT” value (cancer cells) was “ineffective or less effective”.

With celestine blue the “inducing cancer cell death, compared with CCDTHT” value (cancer cells) was “ineffective or less effective”.

In the case of CN(C)c1ccc2nc3ccc(=[N+](C)C)c([N+](=O)[O-])c-3sc2c1.[Cl-] [methylene green], the “inducing cancer cell death, compared with CCDTHT” value (cancer cells) is reported as “ineffective or less effective”.
